Test results reported in publication PMC2912373, “Low-Density Lipoprotein Receptor-Related Protein 1 (LRP1) Mediates Neuronal Aβ42 Uptake and Lysosomal Trafficking” (PLoS ONE, 2010).

Assays:
GT1-7 cells = test: FAM-Aβ42 internalization after LRP1 siRNA knockdown, FACS; type: cell-based; conditions: 500 nM FAM-Aβ42, 37°C, 4 h, 72 h after LRP1 siRNA; FACS of pronase-treated cells
Experimental: To rule out cell type-specific effects and artifacts due to the expression of LRP1 minireceptor, we performed similar FAM-Aβ42 uptake experiments in GT1-7 neuronal cells with reduced endogenous LRP1 levels by siRNA knockdown (Fig. 3A), and in mouse embryonic fibroblasts from both wild-type (MEF1) and LRP1 knockout mice (MEF2) (Fig. 3B). GT1-7 cells were plated and treated as indicated in the Experimental Procedures and GT1-7 and MEF cells were incubated with 500 nM of FAM-Aβ42 at 37°C for 4 h. Steady-state levels of intracellular Aβ42 were determined by flow cytometric analysis of pronase-treated cells. […]
Figure 3 LRP1 mediates internalization and accumulation of Aβ42 in GT1-7 and MEF cells. […] After 72 h, cells were treated with 500 nM FAM-Aβ42 for 4 h and intracellular Aβ42 was determined by flow cytometric analyses of pronase-treated cells as described in the Experimental Procedures. […] Wild type (MEF1) and LRP1 knockout (MEF2) fibroblasts were treated with 500 nM FAM-Aβ42 for 4 h, and intracellular Aβ42 was determined by flow cytometric analyses. ** p<0.01, t-test. n = 3. C, cell lysates from GT1-7 and MEF cells treated as in A and B, analyzed by 7.5% SDS-PAGE, and Western blotted with anti-LRP1 antibodies.
For quantification of Aβ uptake experiments, stable N2a cells were plated into 12-well plates at 16,250 cells/cm^2 and grown overnight. […]

N2a-mLRP4 cells = test: Co-localization of internalized FAM-Aβ42 with LysoTracker, confocal microscopy; type: cell-based, mouse
Experimental: To determine whether internalized Aβ42 is accumulated over time, we performed continuous feeding experiments of FAM-Aβ42 in N2a-pcDNA3 and N2a-mLRP4 cells. The steady-state levels and localization of Aβ42 were determined by flow cytometry and confocal microscopy, respectively (Fig. 2). Cells were incubated with 500 nM FAM-Aβ42 at 37°C for 24, 48 or 72 h and the content of fluorescence per cell was quantified by FACS and presented as a percentage of the levels in N2a-pcDNA3 at each time point (Fig. 2A). […] Therefore, we analyzed the subcellular localization of internalized FAM-Aβ42 by confocal microscopy in N2a cells treated as before and analyzed co-localization with lysosomes. For the visualization of acidic organelles, a brief incubation with LysoTracker Red at the end of the experiment was included (Fig. 2B). After 24 h of incubation, a small amount of cell-associated Aβ42 can be detected in N2a-mLRP4 cells.
Figure 2 Increased accumulation of intracellular Aβ42 within lysosomes in LRP1 minireceptor-expressing cells. A, increased Aβ42 accumulation in LRP1 minireceptor-expressing cells. N2a-mLRP4 and N2a-pcDNA3 cells were treated with 500 nM of FAM-Aβ42 at 37°C for 24, 48 and 72 h, and steady-state levels of intracellular Aβ42 were determined by flow cytometric analyses of pronase-treated cells as described in the Experimental Procedures. […] B, increased co-localization of intracellular Aβ42 and lysosomes in N2a-mLRP4 cells. N2a-pcDNA3 and N2a-mLRP4 cells were grown in glass chamber slides and treated with 500 nM of FAM-Aβ42 at 37°C for 24, 48 and 72 h. Lysosomes were labeled with LysoTracker 30 min before the end of each incubation. Cells were then fixed and analyzed by confocal microscopy.
For the imaging experiments, stable N2a cells were plated into an 8-well chambered coverglass at 16,250 cells/cm^2 with one independent chambered coverglass for each time point, and cells were grown overnight. […] Cells were then fixed and analyzed by a confocal laser scanning microscope (Fluoview 500, Olympus) using a 40x objective lens. […]

## FAM-Aβ42: FAM-Aβ42 peptide (23526) from Anaspec; amyloid-β 42 with carboxyfluorescein at the N-terminal region
GT1-7 cells
  internalization of FAM-Aβ42 in cells with decreased LRP1 levels vs scrambled siRNA control: decrease
N2a-mLRP4 cells; 500 nM FAM-Aβ42, 37°C, 24, 48 and 72 h, N2a-mLRP4, increased over time
  co-localization of intracellular accumulated Aβ42 with LysoTracker: highly co-localized with LysoTracker
N2a-mLRP4 cells; 500 nM FAM-Aβ42, 37°C, 48 and 72 h, both N2a-pcDNA3 and N2a-mLRP4 cells
  localization of Aβ42 into LysoTracker-positive organelles: increased localization
N2a-mLRP4 cells; 500 nM FAM-Aβ42, 37°C, 24 h, 100 nM LysoTracker Red last 30 min, N2a-mLRP4
  localization of cell-associated FAM-Aβ42 into acidic organelles (LysoTracker): does not localize into acidic organelles
